How the values were obtained:
[1] = molecular target: T1, glucocorticoid receptor (Homo sapiens, UniProt P04150); assay: Assay for transactivation activity of the glucocorticoid agonists (MMTV-LTR renilla luciferase reporter); type: cell-based; conditions: A549, A549 cells, 6 hour at 37° C., read-out: maximal response relative to Dexamethasone (100%), transactivation
T1 sequence (P04150 1-777): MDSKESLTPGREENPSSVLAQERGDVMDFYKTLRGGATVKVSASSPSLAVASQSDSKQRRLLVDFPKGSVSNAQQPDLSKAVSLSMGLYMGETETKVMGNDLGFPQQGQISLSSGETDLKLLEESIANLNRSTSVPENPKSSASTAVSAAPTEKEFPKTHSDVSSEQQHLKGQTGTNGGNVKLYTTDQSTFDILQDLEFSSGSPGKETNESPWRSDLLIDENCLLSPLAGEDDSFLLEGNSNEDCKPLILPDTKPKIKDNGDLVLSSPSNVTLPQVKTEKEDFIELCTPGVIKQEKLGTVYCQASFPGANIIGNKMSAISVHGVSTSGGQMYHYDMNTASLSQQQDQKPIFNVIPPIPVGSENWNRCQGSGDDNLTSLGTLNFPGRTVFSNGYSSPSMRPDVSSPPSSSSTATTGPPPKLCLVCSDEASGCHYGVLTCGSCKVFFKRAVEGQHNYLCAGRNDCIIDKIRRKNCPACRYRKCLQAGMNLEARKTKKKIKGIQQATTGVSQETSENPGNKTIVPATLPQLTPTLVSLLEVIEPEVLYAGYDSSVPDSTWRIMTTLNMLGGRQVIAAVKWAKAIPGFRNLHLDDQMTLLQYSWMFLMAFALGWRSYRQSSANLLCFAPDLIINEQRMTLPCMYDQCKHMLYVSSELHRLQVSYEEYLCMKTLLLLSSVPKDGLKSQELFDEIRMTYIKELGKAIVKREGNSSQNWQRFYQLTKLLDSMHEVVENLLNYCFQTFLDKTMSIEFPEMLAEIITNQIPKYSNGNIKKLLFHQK
Procedure: Assay for Transactivation Activity of the Glucocorticoid Agonists
The functional assay based on that described by R. J. H. Austin et al., Eur Resp J. (2002), 20, 1386-1392 measures the ability of compounds to directly transactivate gene expression. A549 cells stably transfected with a reporter gene containing the glucocorticoid responsive region of the mouse mammary tumour virus long terminal repeat (MMTV-LTR) coupled to renilla luciferase were treated with test compounds at appropriate doses for 6 hour at 37° C. The amount of luciferase activity present within the cells is then determined by measuring the light emitted following incubation with a suitable substrate. Dose response curves were constructed from which EC50 values were estimated and from which maximal responses are calculated relative to Dexamethasone (100%).

[2] = molecular target: T1, glucocorticoid receptor; assay: Assay for transrepression activity of the glucocorticoid agonists (NF-κB/ELAM-sPAP reporter, TNF stimulated); type: cell-based; conditions: A549 cells, NF-κB responsive ELAM promoter-sPAP reporter; compound 1 hour, then TNF 10 ng/ml for 16 hours; read-out: pEC50 transrepression (converted)
Procedure: Assay for Transrepression Activity of the Glucocorticoid Agonists
The functional assay based on that described by K. P. Ray et al., Biochem J. (1997), 328, 707-715 provides a measure of transrepressive activity of a glucocorticoid agonist. A549 cells stably transfected with a reporter gene containing the NF-κB responsive elements from the ELAM gene promoter coupled to sPAP (secreted alkaline phosphatase) are treated with test compounds at appropriate doses for 1 hour at 37° C. The cells are then stimulated with tumour necrosis factor (TNF, 10 ng/ml) for 16 hours, at which time the amount of alkaline phosphatase produced is measured by a standard colourimetric assay. Dose response curves were constructed from which EC50 values were estimated.

EC50 [2] [nM]	SMILES	Emax [1] [%]
	CC[C@H]1CC[C@@H](OC(=O)O[C@]2(C(=O)OCC#N)[C@H](C)C[C@H]3[C@@H]4C[C@H](F)C5=CC(=O)C=C[C@]5(C)[C@@]4(F)[C@@H](O)C[C@@]32C)CC1 (relative stereo) [Example 20, Cyanomethyl (6α,11β,16α,17α)-17-({[(cis-4-ethylcyclohexyl)oxy]carbonyl}oxy)-6,9-difluoro-11-hydroxy-16-methyl-3-oxoandrosta-1,4-diene-17-carboxylate]	< 40
	CC1CC2C3CC(F)C4=CC(=O)C=CC4(C)C3(F)C(O)CC2(C)C1(OC(=O)OC1CC2CCC1(C)C2(C)C)C(=O)OCC#N (stereo not drawn) [Example 22, Cyanomethyl (6α,11β,16α,17α)-6,9-difluoro-11-hydroxy-16-methyl-3-oxo-17-[({[(1RS,2RS,4RS)-1,7,7-trimethylbicyclo[2.2.1]hept-2-yl]oxy}carbonyl)oxy]androsta-1,4-diene-17-carboxylate]	< 40
< 0.316	CC(C)C1CCC(OC(=O)O[C@]2(C(=O)OCC#N)[C@H](C)C[C@H]3[C@@H]4C[C@H](F)C5=CC(=O)C=C[C@]5(C)[C@@]4(F)[C@@H](O)C[C@@]32C)CC1 (single isomer, unassigned) [Example 11B, Cyanomethyl (6α,11β,16α,17α)-6,9-difluoro-11-hydroxy-16-methyl-17-[({[4-(1-methylethyl)cyclohexyl]oxy}carbonyl)oxy]-3-oxoandrosta-1,4-diene-17-carboxylate]	
	CCCC(CCC)OC(=O)O[C@]1(C(=O)OCC#N)[C@H](C)C[C@H]2[C@@H]3C[C@H](F)C4=CC(=O)C=C[C@]4(C)[C@@]3(F)[C@@H](O)C[C@@]21C [Example 21, Cyanomethyl (6α,11β16α,17α)-6,9-difluoro-11-hydroxy-16-methyl-3-oxo-17-({[(1-propylbutyl)oxy]carbonyl}oxy)androsta-1,4-diene-17-carboxylate]	< 40
	CCCC(OC(=O)O[C@]1(C(=O)OCC#N)[C@H](C)C[C@H]2[C@@H]3C[C@H](F)C4=CC(=O)C=C[C@]4(C)[C@@]3(F)[C@@H](O)C[C@@]21C)C(C)C (stereo partly drawn) [Example 24, Cyanomethyl (6α,11β,16α,17α)-6,9-difluoro-11-hydroxy-16-methyl-17-[({[1-(1-methylethyl)butyl]oxy}carbonyl)oxy]-3-oxoandrosta-1,4-diene-17-carboxylate]	< 40
< 0.316	CCC(CC)OC(=O)O[C@]1(C(=O)OCC#N)[C@H](C)C[C@H]2[C@@H]3C[C@H](F)C4=CC(=O)C=C[C@]4(C)[C@@]3(F)[C@@H](O)C[C@@]21C [Example 3, Cyanomethyl (6α,11β,16α,17α)-17-({[(1-ethylpropyl)oxy]carbonyl}oxy)-6,9-difluoro-11-hydroxy-16-methyl-3-oxoandrosta-1,4-diene-17-carboxylate]	
	CC(OC(=O)O[C@]1(C(=O)OCC#N)[C@H](C)C[C@H]2[C@@H]3C[C@H](F)C4=CC(=O)C=C[C@]4(C)[C@@]3(F)[C@@H](O)C[C@@]21C)C(C)(C)C (stereo partly drawn) [Example 23, Cyanomethyl (6α,11β,16α,17α)-6,9-difluoro-11-hydroxy-16-methyl-3-oxo-17-({[(1,2,2-trimethylpropyl)oxy]carbonyl}oxy)androsta-1,4-diene-17-carboxylate]	< 40
< 0.1	CCC(C)(C)OC(=O)O[C@]1(C(=O)OCC#N)[C@H](C)C[C@H]2[C@@H]3C[C@H](F)C4=CC(=O)C=C[C@]4(C)[C@@]3(F)[C@@H](O)C[C@@]21C [Example 2, Cyanomethyl (6α,11β,16α,17α)-17-({[(1,1-dimethylpropyl)oxy]carbonyl}oxy)-6,9-difluoro-11-hydroxy-16-methyl-3-oxoandrosta-1,4-diene-17-carboxylate]	
< 0.316	CC(C)C(OC(=O)O[C@]1(C(=O)OCC#N)[C@H](C)C[C@H]2[C@@H]3C[C@H](F)C4=CC(=O)C=C[C@]4(C)[C@@]3(F)[C@@H](O)C[C@@]21C)C(C)C [Example 4, Cyanomethyl (6α,11β,16α,17α)-6,9-difluoro-11-hydroxy-16-methyl-17-[({[2-methyl-1-(1-methylethyl)propyl]oxy}carbonyl)oxy]-3-oxoandrosta-1,4-diene-17-carboxylate]	
< 0.316	C[C@@H]1C[C@H]2[C@@H]3C[C@H](F)C4=CC(=O)C=C[C@]4(C)[C@@]3(F)[C@@H](O)C[C@]2(C)[C@@]1(OC(=O)OCC(C)(C)C)C(=O)OCC#N [Example 6, Cyanomethyl (6α,11β,16α,17α)-17-({[(2,2-dimethylpropyl)oxy]carbonyl}oxy)-6,9-difluoro-11-hydroxy-16-methyl-3-oxoandrosta-1,4-diene-17-carboxylate]	
< 0.1	C[C@@H]1C[C@H]2[C@@H]3C[C@H](F)C4=CC(=O)C=C[C@]4(C)[C@@]3(F)[C@@H](O)C[C@]2(C)[C@@]1(OC(=O)OC(C)(C)C)C(=O)OCC#N [Example 1, Cyanomethyl (6α,11β,16α,17α)-17-({[(1,1-dimethylethyl)oxy]carbonyl}oxy)-6,9-difluoro-11-hydroxy-16-methyl-3-oxoandrosta-1,4-diene-17-carboxylate]	
	CC[C@H]1CC[C@H](OC(=O)O[C@]2(C(=O)OCC#N)[C@H](C)C[C@H]3[C@@H]4C[C@H](F)C5=CC(=O)C=C[C@]5(C)[C@@]4(F)[C@@H](O)C[C@@]32C)CC1 (relative stereo) [Example 19, Cyanomethyl (6α,11β,16α,17α)-17-({[(trans-4-ethylcyclohexyl)oxy]carbonyl}oxy)-6,9-difluoro-11-hydroxy-16-methyl-3-oxoandrosta-1,4-diene-17-carboxylate]	< 40

SMILES	EC50 [2] [nM]	Emax [1] [%]
CC(C)C(C)OC(=O)O[C@]1(C(=O)OCC#N)[C@H](C)C[C@H]2[C@@H]3C[C@H](F)C4=CC(=O)C=C[C@]4(C)[C@@]3(F)[C@@H](O)C[C@@]21C (stereo partly drawn) [Example 8, Cyanomethyl (6α,11β,16α,17α)-17-({[(1,2-dimethylpropyl)oxy]carbonyl}oxy)-6,9-difluoro-11-hydroxy-16-methyl-3-oxoandrosta-1,4-diene-17-carboxylate]	< 0.316	< 40
C[C@@H]1C[C@H]2[C@@H]3C[C@H](F)C4=CC(=O)C=C[C@]4(C)[C@@]3(F)[C@@H](O)C[C@]2(C)[C@@]1(OC(=O)OC1CCCC1)C(=O)OCC#N [Example 9, Cyanomethyl (6α,11β,16α,17α)-17-{[(cyclopentyloxy)carbonyl]oxy}-6,9-difluoro-11-hydroxy-16-methyl-3-oxoandrosta-1,4-diene-17-carboxylate]	< 0.316	< 40
CCC(CC)COC(=O)O[C@]1(C(=O)OCC#N)[C@H](C)C[C@H]2[C@@H]3C[C@H](F)C4=CC(=O)C=C[C@]4(C)[C@@]3(F)[C@@H](O)C[C@@]21C [Example 5, Cyanomethyl (6α,11β,16α,17α)-17-({[(2-ethylbutyl)oxy]carbonyl}oxy)-6,9-difluoro-11-hydroxy-16-methyl-3-oxoandrosta-1,4-diene-17-carboxylate]	< 0.316	< 40
CCC(OC(=O)O[C@]1(C(=O)OCC#N)[C@H](C)C[C@H]2[C@@H]3C[C@H](F)C4=CC(=O)C=C[C@]4(C)[C@@]3(F)[C@@H](O)C[C@@]21C)C(C)C (stereo partly drawn) [Example 7, Cyanomethyl (6α,11β,16α,17α)-17-({[(1-ethyl-2-methylpropyl)oxy]carbonyl}oxy)-6,9-difluoro-11-hydroxy-16-methyl-3-oxoandrosta-1,4-diene-17-carboxylate]	< 0.316	< 40
